According to US7763585B2, “Methods for inhibiting tumor cell proliferation” (priority 2003, dated 2010):
pIC50: −log10 of the molar value.

Experiments:
Stat3 [1] = experiment: EMSA of nuclear extracts from treated cells with constitutively-activated Stat3; assay type: cell-based, mouse and human; settings: Src-transformed fibroblasts and human tumor cells, FIG. 3
Protocol: FIG. 3 is a photograph showing the evaluation of effects of platinum complexes on Stat3 activation analyzed by EMSA. Nuclear extracts prepared from malignant cells that contain constitutively-activated Stat3 and treated with platinum complexes for the indicated times were analyzed by EMSA using hSIE oligonucleotide probe. Extracts were prepared from v-Src-transformed NIH3T3/v-Src; human breast carcinoma MDA-MB-231; MDA-MB-435; and […]. Position of Stat3:DNA complex in gel is shown.
Nuclear extracts were prepared from cell lines and used for EMSA as previously described (Turkson et al., 1998; Yu et al., 1995; Garcia et al., 1997). In some cases, cells were pre-treated with platinum complexes for the indicated times prior to harvesting. Where cells were stimulated with EGF (6 ng/ml), duration of treatment was 15 min. Nuclear extracts were pre-incubated with compounds for 30 min at room temperature prior to incubation with radiolabeled probe. The ^32P-radiolabeled oligonucleotide probes used are hSIE (high affinity sis-inducible element, m67 variant, 5′-[…]-3′) (SEQ ID NO:1) that binds both Stat1 and Stat3 (Garcia et al., 1997; Wagner et al., 1990), MGFe (mammary gland factor element from the bovine β-casein gene promoter, 5′-[…]-3′) (SEQ ID NO:2) that binds Stat1 and Stat5 (Gouilleux et al., 1995; Seidel et al., 1995), the NF-κB binding oligo (5′-[…]-3′) (SEQ ID NO:3), and the oligonucleotide sequence from the DHFR promoter that binds E2F1.
The effects of platinum complexes on persistent activation of Stat3 in Src-transformed fibroblasts and human tumor cells were investigated. […] These studies were then extended to evaluate the effects of the platinum complexes on Stat3 transcriptional activity.

Stat1:Stat1 = molecular target: T1, Stat1:Stat1 (Mus musculus, UniProt P42225); experiment: EMSA, disruption of Stat1:Stat1 DNA-binding activity in vitro (hSIE probe); assay type: biochemical
T1 construct: endogenous in cells; host or cells: EGF-stimulated fibroblasts (nuclear extract)
T1 sequence (P42225 2-749 limits assumed): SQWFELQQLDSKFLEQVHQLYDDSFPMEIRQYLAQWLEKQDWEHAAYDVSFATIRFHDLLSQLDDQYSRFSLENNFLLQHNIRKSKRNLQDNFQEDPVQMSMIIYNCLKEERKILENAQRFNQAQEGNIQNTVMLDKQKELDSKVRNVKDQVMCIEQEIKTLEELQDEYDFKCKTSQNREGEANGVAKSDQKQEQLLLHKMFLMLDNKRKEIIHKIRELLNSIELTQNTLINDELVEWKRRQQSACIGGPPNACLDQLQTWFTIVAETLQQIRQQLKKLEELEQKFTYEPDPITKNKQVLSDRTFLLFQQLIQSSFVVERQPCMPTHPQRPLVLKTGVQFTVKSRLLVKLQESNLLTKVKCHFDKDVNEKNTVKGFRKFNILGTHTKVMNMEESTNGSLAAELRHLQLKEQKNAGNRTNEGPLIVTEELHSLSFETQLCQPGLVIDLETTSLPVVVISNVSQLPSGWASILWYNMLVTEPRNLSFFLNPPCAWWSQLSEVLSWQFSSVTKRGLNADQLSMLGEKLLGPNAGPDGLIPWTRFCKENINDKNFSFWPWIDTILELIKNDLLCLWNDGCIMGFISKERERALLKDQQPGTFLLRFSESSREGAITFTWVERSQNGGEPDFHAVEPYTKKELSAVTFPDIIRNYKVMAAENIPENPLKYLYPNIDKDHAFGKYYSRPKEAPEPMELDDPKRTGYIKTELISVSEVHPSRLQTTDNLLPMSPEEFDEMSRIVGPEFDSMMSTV
Protocol: (§1) FIGS. 1A-D are photographs showing EMSA analyses of DNA-binding activities and effects of platinum complexes. Nuclear extracts containing activated Stat1, Stat3 and Stat5 are treated with the indicated concentrations of platinum complex ISSCPA-1, ISSCPA-3, ISSCPA-7, or PtCl4 for 30 min at room temperature prior to incubation with radiolabeled oligonucleotide probes. […] Positions of complexes of DNA with STAT, E2F1 or NFκB (p65, p50) in gel are labeled. Control lanes represent nuclear extracts that are not pre-incubated with platinum complexes.
(§2) Nuclear extracts were prepared from cell lines and used for EMSA as previously described (Turkson et al., 1998; Yu et al., 1995; Garcia et al., 1997). In some cases, cells were pre-treated with platinum complexes for the indicated times prior to harvesting. Where cells were stimulated with EGF (6 ng/ml), duration of treatment was 15 min. Nuclear extracts were pre-incubated with compounds for 30 min at room temperature prior to incubation with radiolabeled probe. The ^32P-radiolabeled oligonucleotide probes used are hSIE (high affinity sis-inducible element, m67 variant, 5′-[…]-3′) (SEQ ID NO:1) that binds both Stat1 and Stat3 (Garcia et al., 1997; Wagner et al., 1990), MGFe (mammary gland factor element from the bovine β-casein gene promoter, 5′-AGATTTCTAGGAATTCAA-3′) (SEQ ID NO:2) that binds Stat1 and Stat5 (Gouilleux et al., 1995; Seidel et al., 1995), the NF-κB binding oligo (5′-[…]-3′) (SEQ ID NO:3), and the oligonucleotide sequence from the DHFR promoter that binds E2F1.
(§3) Platinum compounds were evaluated for inhibitory activity against STAT DNA-binding in vitro.

Stat3:Stat3 = molecular target: T2, Stat3:Stat3 (Mus musculus, UniProt P42227); experiment: EMSA, disruption of Stat3:Stat3 DNA-binding activity in vitro (hSIE probe); assay type: biochemical; settings: for Level of DNA-binding activity of Stat3 (EMSA): EGF-stimulated fibroblast nuclear extracts, 30 min preincubation, FIG. 1A
T2 construct: endogenous in cells; host or cells: EGF-stimulated fibroblasts (nuclear extract)
T2 sequence (P42227 2-770 limits assumed): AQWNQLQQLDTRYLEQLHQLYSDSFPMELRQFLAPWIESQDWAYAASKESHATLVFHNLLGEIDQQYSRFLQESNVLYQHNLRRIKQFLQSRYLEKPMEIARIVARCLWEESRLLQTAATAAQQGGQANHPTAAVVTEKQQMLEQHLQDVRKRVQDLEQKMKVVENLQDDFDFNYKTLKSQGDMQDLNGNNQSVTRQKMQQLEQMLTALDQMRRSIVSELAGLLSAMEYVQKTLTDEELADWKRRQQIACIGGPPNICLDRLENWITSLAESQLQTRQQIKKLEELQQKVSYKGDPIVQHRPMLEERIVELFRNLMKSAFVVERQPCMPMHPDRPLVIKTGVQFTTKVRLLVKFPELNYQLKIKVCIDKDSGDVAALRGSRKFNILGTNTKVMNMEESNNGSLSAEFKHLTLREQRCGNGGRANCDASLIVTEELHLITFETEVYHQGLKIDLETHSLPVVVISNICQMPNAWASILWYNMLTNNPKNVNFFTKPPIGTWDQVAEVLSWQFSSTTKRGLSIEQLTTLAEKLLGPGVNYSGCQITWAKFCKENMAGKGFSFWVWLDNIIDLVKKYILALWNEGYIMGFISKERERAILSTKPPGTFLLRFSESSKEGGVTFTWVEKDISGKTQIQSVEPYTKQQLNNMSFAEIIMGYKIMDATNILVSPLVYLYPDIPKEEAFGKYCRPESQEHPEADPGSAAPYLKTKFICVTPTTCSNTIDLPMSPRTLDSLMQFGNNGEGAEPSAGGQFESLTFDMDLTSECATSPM
Protocol: as §1, §2, §3

Stat5 = experiment: EMSA, Stat5 DNA-binding activity in vitro (MGFe probe); assay type: biochemical, mouse; settings: FIG. 1B
Protocol: as §1, §2, §3

Stat1:Stat3 = molecular target: T3, Stat1:Stat3 (Mus musculus, UniProt P42225+P42227); experiment: EMSA, disruption of Stat1:Stat3 DNA-binding activity in vitro (hSIE probe); assay type: biochemical
T3 construct: endogenous in cells; host or cells: EGF-stimulated fibroblasts (nuclear extract)
T3 sequence (P42227 2-770 limits assumed, one chain of several): as the sequence (P42227 2-770 limits assumed) above
Protocol: as §1, §2, §3

B16 melanoma = experiment: Mouse model of melanoma tumor, intra-tumoral injection; assay type: in vivo; settings: direct intra-tumoral injection, monitored up to 9 days, FIG. 8
Protocol: (§4) FIGS. 8A-C show tumor regression induced by platinum (IV) chloride. Tumor models in mice using B16 melanoma and CT26 colon tumors both of which harbor constitutively-active Stat3 were treated by intra-tumoral injection with doses of platinum (IV) chloride and tumor sizes monitored every other day for up to 9 days. FIG. 8A is a photograph showing extracted tumor tissues were analyzed for Stat3 activity in in vitro DNA-binding assays and EMSA analysis. FIG. 8B and FIG. 8C show tumor sizes monitored by calipers plotted against days of treatment.
(§5) The antitumor efficacy of platinum (IV) chloride of the invention using mouse models of melanoma and colon tumors was evaluated. Established tumors were directly injected with doses of platinum (IV) chloride and tumor size subsequently monitored. […] In parallel studies, treated tumors were extracted and Stat3 activity determined on the basis of DNA-binding activity analyzed by EMSA. […] Together, the findings support inhibition of constitutively-active STATs by platinum (IV) chloride leads to regression of melanoma and colon tumors.

CT26 colon tumors = experiment: Mouse model of colon tumor, intra-tumoral injection; assay type: in vivo; settings: direct intra-tumoral injection, monitored up to 9 days, FIG. 8
Protocol: as §4, §5

Stat3 [2] = molecular target: T4, Stat3 (Mus musculus, UniProt P42227); experiment: Stat3 DNA-binding activity (EMSA) in extracted treated tumors; assay type: in vivo; settings: FIG. 8A
T4 construct: from tissue; host or cells: extracted B16 melanoma / CT26 colon tumour tissue from mice
T4 sequence (P42227 whole entry): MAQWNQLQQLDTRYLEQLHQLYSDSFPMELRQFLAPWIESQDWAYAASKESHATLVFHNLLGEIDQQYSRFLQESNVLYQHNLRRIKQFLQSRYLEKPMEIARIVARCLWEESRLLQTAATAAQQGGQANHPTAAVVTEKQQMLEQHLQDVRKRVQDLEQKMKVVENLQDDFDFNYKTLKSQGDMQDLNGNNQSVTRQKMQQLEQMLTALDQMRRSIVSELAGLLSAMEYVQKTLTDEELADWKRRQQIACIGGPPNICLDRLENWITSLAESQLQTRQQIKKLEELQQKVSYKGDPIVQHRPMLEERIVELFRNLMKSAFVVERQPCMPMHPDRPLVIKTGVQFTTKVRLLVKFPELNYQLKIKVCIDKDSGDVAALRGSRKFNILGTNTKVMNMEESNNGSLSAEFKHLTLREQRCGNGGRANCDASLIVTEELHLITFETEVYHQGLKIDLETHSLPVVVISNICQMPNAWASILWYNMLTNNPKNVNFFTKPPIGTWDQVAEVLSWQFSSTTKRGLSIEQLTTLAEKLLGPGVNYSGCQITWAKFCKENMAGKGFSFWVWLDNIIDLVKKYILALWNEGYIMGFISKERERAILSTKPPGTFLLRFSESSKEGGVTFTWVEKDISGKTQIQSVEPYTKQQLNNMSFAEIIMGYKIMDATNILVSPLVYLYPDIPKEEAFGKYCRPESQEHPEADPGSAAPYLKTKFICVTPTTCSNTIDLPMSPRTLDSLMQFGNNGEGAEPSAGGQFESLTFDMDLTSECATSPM
Protocol: as §4, §5

Structure (SMILES) | Inhibition of constitutive Stat3 activation in treated cells (EMSA of nuclear extracts) (Stat3 [1]) | pIC50 (Stat1:Stat1) | Level of DNA-binding activity of Stat1 (EMSA) (Stat1:Stat1; EGF-stimulated fibroblast nuclear extracts, 30 min preincubation, hSIE probe, FIG. 1A) | Level of DNA-binding activity of Stat3 (EMSA) (Stat3:Stat3) | pIC50 (Stat3:Stat3; nuclear extracts pre-incubated 30 min at room temperature, read-out: IC50 for disruption of STAT DNA-binding activity in vitro, Stat3:Stat3) | Inhibitory effect on Stat5 DNA-binding activity (EMSA) (Stat5) | pIC50 (Stat1:Stat3) | Tumor size, melanoma tumors (B16 melanoma) | Tumor size, colon tumors (CT26 colon tumors) | Constitutively-active Stat3 in treated tumors (DNA-binding activity by EMSA) (Stat3 [2])
N.N.[Cl][Pt][Cl] [Cisplatin, reference compound] | modest or negligible |  |  |  |  |  |  |  |  | 
[Cl][Pt]1([Cl])[NH]CC[NH]1 [ISS CPA-3] | modest or negligible | 5.08 | dose-dependent reduction | dose-dependent reduction | 5.24 | much reduced inhibitory effect | 4.57 |  |  | 
[Cl][Pt]([Cl])([Cl])[Cl] [platinum (IV) chloride] |  |  |  | disrupts DNA-binding activity of Stat3 |  |  |  | complete regression | complete regression | strongly attenuated
